# Measurements from the supplement of paper PMC10307832.
# Experiments:
# Test in all cases: relative viability (nuclei count vs DMSO), 5 days (fraction); higher = more cells survive
# MK-8033 + Decitabine = compound: Cn1cc(-c2cnc3ccc4ccc(CS(=O)(=O)NCc5ccccn5)cc4c(=O)c3c2)cn1 [MK-8033] + Nc1ncn([C@H]2C[C@H](O)[C@@H](CO)O2)c(=O)n1 [Decitabine] (partner 2 µM)
# In short: (§1)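 Lung cancer cell lines were seeded in 1536-well plates and dosed by pin tool the next day, with either a single drug or a fixed anchor-drug dose combined with five library-drug doses (not always all listed) spaced in √10 steps. Five days later, one step fixed the cells and stained their nuclei (final 0.05% Triton X-100, 1% formaldehyde, 1 ug/ml Hoechst), and nuclei were counted on 4× images. Relative viability is the nuclei count in treated wells divided by the count in vehicle wells, and each value is the median of duplicate plates.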
# Irinotecan + Olaparib = compound: CCc1c2c(nc3ccc(OC(=O)N4CCC(N5CCCCC5)CC4)cc13)-c1cc3c(c(=O)n1C2)COC(=O)[C@]3(O)CC [Irinotecan] + O=C(c1cc(Cc2n[nH]c(=O)c3ccccc23)ccc1F)N1CCN(C(=O)C2CC2)CC1 [Olaparib] (partner 8 µM)
# In short: as §1
# MK-8033 + Lapatinib = compound: Cn1cc(-c2cnc3ccc4ccc(CS(=O)(=O)NCc5ccccn5)cc4c(=O)c3c2)cn1 [MK-8033] + CS(=O)(=O)CCNCc1ccc(-c2ccc3ncnc(Nc4ccc(OCc5cccc(F)c5)c(Cl)c4)c3c2)o1 [Lapatinib] (partner 2 µM)
# In short: as §1
# Irinotecan + Luminespib = compound: CCc1c2c(nc3ccc(OC(=O)N4CCC(N5CCCCC5)CC4)cc13)-c1cc3c(c(=O)n1C2)COC(=O)[C@]3(O)CC [Irinotecan] + CCNC(=O)c1noc(-c2cc(C(C)C)c(O)cc2O)c1-c1ccc(CN2CCOCC2)cc1 [Luminespib] (partner 0.01 µM)
# In short: as §1
Cell Line,relative viability (MK-8033 + Decitabine; first compound 0.02 µM),relative viability (MK-8033 + Decitabine; first compound 0.2 µM),relative viability (MK-8033 + Decitabine; first compound 0.6325 µM),relative viability (MK-8033 + Decitabine; first compound 2 µM),relative viability (Irinotecan + Olaparib; first compound 0.6325 µM),relative viability (Irinotecan + Olaparib; first compound 2 µM),relative viability (Irinotecan + Olaparib; first compound 6.325 µM),relative viability (Irinotecan + Olaparib; first compound 20 µM),relative viability (MK-8033 + Lapatinib; first compound 0.02 µM),relative viability (MK-8033 + Lapatinib; first compound 0.2 µM),relative viability (MK-8033 + Lapatinib; first compound 0.6325 µM),relative viability (MK-8033 + Lapatinib; first compound 2 µM),relative viability (Irinotecan + Luminespib; first compound 0.6325 µM),relative viability (Irinotecan + Luminespib; first compound 2 µM),relative viability (Irinotecan + Luminespib; first compound 6.325 µM),relative viability (Irinotecan + Luminespib; first compound 20 µM),relative viability (MK-8033 + Decitabine; first compound 0.06325 µM),relative viability (MK-8033 + Lapatinib; first compound 0.06325 µM)
HCC-827,0.345,0.322,0.376,0.37,0.379,0.236,0.212,0.165,0.195,0.188,0.184,0.218,0.289,0.501,0.165,0.104,,
HOP-62,0.222,0.261,0.189,0.199,,0.201,0.147,0.169,1.01,0.786,1.07,0.987,0.254,0.361,0.203,0.21,0.234,0.753
IA-LM,,,,,0.537,0.177,0.166,0.0811,0.682,0.66,0.633,0.773,,,,,,0.636
LC-2-ad,0.889,0.722,0.813,0.722,0.389,0.337,0.282,0.24,1.09,0.877,1.11,0.806,0.685,0.542,0.337,0.233,1.08,0.915
LCLC-97TM1,0.218,,0.209,0.211,0.0852,0.144,0.0736,0.13,1.35,0.656,0.957,0.929,0.228,0.208,0.148,0.181,0.207,1.06
LCLC-103H,0.699,0.673,0.736,0.766,0.469,0.483,0.407,0.444,,,,,0.83,0.502,0.348,0.501,0.724,
LK-2,0.299,0.322,0.339,0.343,0.481,0.426,0.201,0.235,0.968,0.963,1.1,0.807,0.162,0.224,0.264,0.327,0.3,0.807
LOU-NH91,0.792,0.789,0.789,0.813,0.712,0.477,0.321,0.153,0.785,0.735,0.772,0.745,0.371,0.323,0.301,0.28,0.662,
LU99A,0.853,0.849,0.951,0.883,0.126,0.126,0.119,0.15,1.03,0.97,0.893,0.764,0.174,0.184,0.206,0.207,0.901,0.892
LXF-289,0.377,0.352,0.408,0.338,0.211,0.215,0.162,0.158,0.902,0.874,0.917,0.875,0.592,0.288,0.176,0.208,0.394,0.907
NCI-H23,0.282,0.3,,0.299,0.245,0.254,0.207,0.2,1.27,0.919,1.35,1.09,0.228,0.394,0.332,0.241,0.332,0.818
NCI-H322M,0.74,0.742,0.762,0.747,0.135,0.642,0.538,0.235,0.605,0.531,0.575,0.602,0.844,0.777,0.529,0.181,0.663,0.508
NCI-H358,0.205,0.211,0.261,0.198,0.215,0.286,0.158,0.109,0.427,0.44,0.42,0.456,0.285,0.152,0.151,0.143,0.192,0.317
NCI-H441,0.237,0.231,0.264,0.238,0.243,0.241,0.256,0.229,,,,,0.231,0.332,0.304,0.309,0.237,
NCI-H522,0.552,0.73,0.612,0.725,0.493,0.532,0.453,0.525,,,,,,0.645,0.468,0.495,0.617,
NCI-H1299,,,,,0.539,0.478,0.337,0.207,0.989,0.964,0.965,0.982,,,,,,0.947
NCI-H1563,,,,,,,,,0.965,0.966,0.864,0.886,0.608,0.269,0.497,0.524,,0.833
NCI-H1623,,,,,,,,,,,,,0.412,0.312,0.279,0.239,,
NCI-H1648,0.402,0.543,0.515,0.468,0.525,0.388,0.35,0.276,,,,,,,,,,
NCI-H1703,,,,,0.512,0.375,0.169,0.164,1.04,0.99,0.912,1.05,,,,,,1.04
NCI-H2228,,,,,0.496,0.486,0.451,0.486,1.34,0.848,1,0.98,0.14,0.177,0.318,0.276,,1.08
NCI-H2342,0.729,0.738,0.705,0.782,0.412,0.386,0.352,0.384,,,,,0.756,0.676,0.572,0.485,0.787,
SW 900,0.483,0.496,0.549,0.41,,0.474,0.334,0.384,,,,,0.203,0.387,0.366,0.465,0.328,
